“Also recorded” adds a separate entry of the source.
Legend:
PDE I = settings: cited from earlier work
PDE III = settings: cited from earlier work
[1] = tested on: PDE activity in GH4C1 cells; assay: Effect of PDE inhibitors, forskolin and VIP on cAMP levels (Ca2+ influx through CNG channels); format: cell-based, rat; settings: for d(ΔF/F0)/dt: basal cAMP, inhibitor concentration (μM)
Experimental: To further test the utility of this approach, PDE activity in excitable GH4C1 pituitary cells was examined. In all of the experiments shown (See, FIGS. 13-14, and Table 2), 1 μM nimodipine was added at time zero to block Ca^2+ influx though voltage-gated Ca^2+ channels (triggered by membrane depolarization due to Ca^2+ and Na^+ influx through CNG channels). […] FIGS. 13 and 14 each depict experiments done on a single batch of cells. As before, similar results were obtained on three other batches. In the experiments that produced the data shown in Table 2, cAMP concentrations were monitored using Ca^2+ influx through C460W/E583M channels. […] Either 100 μM IBMX or vehicle (-IBMX; control) were added at time zero. Then, 50 μM forskolin were added at 180 seconds d(ΔF/F0)/dt, which is proportional to the Ca^2+ influx rate, was estimated as described in the Examples. Data are provided as mean±standard error. IBMX or vehicle was added at 60 seconds (first arrow in FIG. 13). Either 10 μM forskolin or 100 nM VIP were added at 240 seconds (second arrow in FIG. 13). In the absence of IBMX, large forskolin or VIP-induced increases in Ca^2+ influx were observed. […] This level of basal AC activity was quite different from that observed in HEK-293 cells (See, FIGS. 9 and 10). 1 μM nimodipine was added at time 0 to block endogenous voltage-gated Ca^2+ channels.
To identify the PDE family or families that regulate the local cAMP concentration in GH4C1 cells, cAMP accumulation was monitored in the presence and absence of PDE inhibitors (See, Table 2). Again, the high cAMP affinity C460W/E583M channels were used. PDE inhibitors were added at 60 s. Although the addition of IBMX alone triggered Ca^2+ influx, 10 μM forskolin were added at 240 s as a positive control for CNG channel activity. […] This PDE is likely to have a low Km for cAMP because it is capable of regulating cAMP at concentrations too low for the WT or Δ61-90/C460W/E583M channels to detect. Thus, it is contemplated that a Ca^2+-CaM stimulated PDE (type I) is primarily responsible for controlling basal cAMP signals in GH4C1 cells.
In addition, PDE activity was monitored using Δ61-90/C460W/E583M channels to detect changes in cAMP concentration (See, FIG. 14). PDE inhibitors and forskolin were added as described above. With this construct, it was not possible to observe changes in cAMP concentration due to inhibition of PDE activity alone. […] Inhibitors specific to other PDE types had no effect on the forskolin-induced Ca^2+ influx (data not shown). […] It is contemplated that Ca^2+ influx through the C460W/E583M channels was saturated at cAMP concentrations below the Km for this PDE. Thus, it is contemplated that there are two different PDE types that regulate local cAMP signals in GH4C1 cells: a low Km, 8-methoxymethyl-IBMX sensitive PDE (type I); and a high Km, RO-20-1724-, rolipram-sensitive PDE (type IV).
GH4C1 rat pituitary cells (ATCC) were maintained in 13 mL Ham's F-10 medium (Life Technologies) supplemented with 14.3 mM NaHCO3, 15% donor horse serum (Gemini), and 2.5% fetal bovine serum, pH 6.8, in 75 cm^2 flasks at 37° C. in a humidified atmosphere of 95% air and 5% CO2. Cells were split weekly (1:4) and washed with fresh medium twice weekly. Cells were plated at ˜60% confluence in 100 mm culture dishes twenty-four hours prior to infection with the CNG-channel-encoding adenovirus constructs (multiplicity of infection=50 plaque forming units per cell). Forty-eight hours post-infection cells were detached, resuspended in serum-containing medium, and assayed within 12 hours.
In this Example, experiments conducted to examine the response of excitable GH4C1 pituitary cells to stimulation by either forskolin or the hormone vasoactive intestinal peptide (VIP), in the presence of absence of PDE inhibitors are described. […]

PDE IV = settings: cited from earlier work
PDE VIII = molecular target: T1, PDE VIII (Mus musculus, UniProt O88502); settings: cited from earlier work
T1 construct: host or cells: heterologously expressed
T1 sequence (O88502 1-823): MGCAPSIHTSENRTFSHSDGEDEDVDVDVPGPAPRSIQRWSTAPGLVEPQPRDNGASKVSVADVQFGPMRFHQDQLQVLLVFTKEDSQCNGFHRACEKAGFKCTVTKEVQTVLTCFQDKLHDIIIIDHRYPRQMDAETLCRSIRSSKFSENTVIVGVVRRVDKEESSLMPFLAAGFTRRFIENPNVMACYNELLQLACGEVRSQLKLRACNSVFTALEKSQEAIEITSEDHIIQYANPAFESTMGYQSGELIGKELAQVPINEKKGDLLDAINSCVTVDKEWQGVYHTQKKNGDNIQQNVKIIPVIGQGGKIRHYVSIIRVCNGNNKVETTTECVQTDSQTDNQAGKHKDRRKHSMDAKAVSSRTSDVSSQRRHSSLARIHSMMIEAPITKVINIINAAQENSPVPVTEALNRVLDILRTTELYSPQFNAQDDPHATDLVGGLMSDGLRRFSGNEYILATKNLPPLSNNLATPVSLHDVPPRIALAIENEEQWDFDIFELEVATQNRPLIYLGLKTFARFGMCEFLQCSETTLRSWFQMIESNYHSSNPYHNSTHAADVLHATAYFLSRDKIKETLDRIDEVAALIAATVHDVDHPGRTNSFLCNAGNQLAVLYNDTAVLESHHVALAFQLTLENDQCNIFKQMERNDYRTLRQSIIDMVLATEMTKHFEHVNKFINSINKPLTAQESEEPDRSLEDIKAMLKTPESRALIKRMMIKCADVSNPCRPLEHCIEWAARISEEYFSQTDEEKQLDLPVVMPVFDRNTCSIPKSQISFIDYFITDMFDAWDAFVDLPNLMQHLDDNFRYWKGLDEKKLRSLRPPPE

PDE IX = molecular target: T2, PDE IX (UniProt O70628); settings: read-out: IC50, PDE IX; cited from earlier work
T2 sequence (O70628 1-534): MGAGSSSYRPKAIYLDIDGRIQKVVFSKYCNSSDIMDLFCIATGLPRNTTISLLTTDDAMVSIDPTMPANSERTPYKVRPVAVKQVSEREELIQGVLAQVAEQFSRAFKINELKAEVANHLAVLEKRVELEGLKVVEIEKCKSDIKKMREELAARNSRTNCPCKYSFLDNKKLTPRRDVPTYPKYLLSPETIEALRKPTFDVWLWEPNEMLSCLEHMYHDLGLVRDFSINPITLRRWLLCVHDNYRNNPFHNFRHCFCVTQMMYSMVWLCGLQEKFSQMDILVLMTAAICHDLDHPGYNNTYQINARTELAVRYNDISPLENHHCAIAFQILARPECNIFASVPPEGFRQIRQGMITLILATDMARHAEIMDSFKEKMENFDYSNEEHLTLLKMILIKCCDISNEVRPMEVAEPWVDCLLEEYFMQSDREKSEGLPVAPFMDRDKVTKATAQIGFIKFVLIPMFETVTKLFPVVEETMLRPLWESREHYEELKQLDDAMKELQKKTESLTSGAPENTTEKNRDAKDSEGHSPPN

PDE VII = molecular target: T3, PDE VII (UniProt Q9QXQ1); settings: cited from earlier work
T3 sequence (Q9QXQ1 1-446): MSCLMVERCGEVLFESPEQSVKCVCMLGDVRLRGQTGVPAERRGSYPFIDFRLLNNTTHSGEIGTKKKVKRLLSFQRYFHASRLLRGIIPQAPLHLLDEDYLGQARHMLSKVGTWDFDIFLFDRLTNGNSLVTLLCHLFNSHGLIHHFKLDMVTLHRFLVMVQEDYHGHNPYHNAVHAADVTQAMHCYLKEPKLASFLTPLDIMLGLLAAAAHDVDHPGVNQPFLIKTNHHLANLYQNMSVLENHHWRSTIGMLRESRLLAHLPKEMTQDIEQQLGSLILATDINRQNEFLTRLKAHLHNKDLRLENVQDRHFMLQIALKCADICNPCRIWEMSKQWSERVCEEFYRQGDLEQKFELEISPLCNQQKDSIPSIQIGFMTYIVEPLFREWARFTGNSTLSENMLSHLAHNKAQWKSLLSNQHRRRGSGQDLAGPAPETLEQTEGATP

PDE VI = settings: cited from earlier work

| Structure (SMILES) | IC50 (PDE I) [µM] | IC50 (PDE III) [µM] | Ca2+ influx induced by the PDE inhibitor alone (basal cAMP) ([1]; C460W/E583M channels, no AC stimulation) | d(ΔF/F0)/dt ([1]; C460W/E583M channels) [s⁻¹] | effect on forskolin-induced Ca2+ influx / PDE activity ([1]; Δ61-90/C460W/E583M channels, 10 μM forskolin) | IC50 (PDE IV) [µM] | IC50 (PDE VIII) [µM] | IC50 (PDE IX) [µM] | IC50 (PDE VII) [µM] | IC50 (PDE VI) [µM] |
| --- | --- | --- | --- | --- | --- | --- | --- | --- | --- | --- |
| COCc1nc2c([nH]1)c(=O)n(C)c(=O)n2CC(C)C [8-methoxymethyl-IBMX] | 2 to 8 | 69 | induced Ca^2+ influx through CNG channels | 0.0025 ± 0.0009 | significantly inhibited PDE activity; also recorded: increase forskolin-induced Ca^2+ influx through CNG channels | > 100 |  |  |  |  |
| CCCOc1ccccc1-c1nc2nn[nH]c2c(=O)[nH]1 [Zaprinast] | 3 to 10 | 10 |  | 0 |  |  | > 100 | 29 to 35 | > 50 | 0.15 |

From patent US7341836B2, “Modified cyclic nucleotide gated ion channels” (The Regents of the University of Colorado, priority 2001, dated 2008)
